The source of these data is article PMC11106165, “Repurposing the KCa3.1 Blocker Senicapoc for Ischemic Stroke” (Translational Stroke Research, 2023).

In one data set the target is T1, human tPA (Homo sapiens, UniProt P00750).
T1 construct: purchased Abcam ab108905
In words: Chromogenic tPA activity assay. To be noted: 30-min assay. In kind it is biochemical. The text has this:
The commercially available tPA Activity Assay Kit (Abcam, ab108905) was used to assess whether senicapoc and TRAM-34 affect the ability of human tPA to cleave its substrate plasminogen similar to protocols published by Lapchak and Boitano [38] and Lapchak et al.. Reactions were run in optically clear flat-bottom 96-well plates (Corning, Catalog #3904). Human plasminogen activator inhibitor-1 (PAI-1; Sigma-Aldrich CC4075) was used as a positive control. Human plasminogen, the chromogenic plasmin substrate, and human tPA were included in the tPA Activity Assay Kit. […] The reactions were pre-incubated at 37 °C for 5 min prior to the addition of the chromogenic plasmin substrate and subsequently placed in a heated SpectraMax M5 spectrophotometer. Absorbances at 405 nm were measured every 30 s for 30 min.

On the set-up of data set [1]: method as in PMID 22675649. To be noted: cited from earlier work.
A further data set concerns rats or mice, tMCAO. Also noted: method as in PMID 21750563, PMID 26661208. To be noted: cited from earlier work.

T1 sequence (P00750 36-562): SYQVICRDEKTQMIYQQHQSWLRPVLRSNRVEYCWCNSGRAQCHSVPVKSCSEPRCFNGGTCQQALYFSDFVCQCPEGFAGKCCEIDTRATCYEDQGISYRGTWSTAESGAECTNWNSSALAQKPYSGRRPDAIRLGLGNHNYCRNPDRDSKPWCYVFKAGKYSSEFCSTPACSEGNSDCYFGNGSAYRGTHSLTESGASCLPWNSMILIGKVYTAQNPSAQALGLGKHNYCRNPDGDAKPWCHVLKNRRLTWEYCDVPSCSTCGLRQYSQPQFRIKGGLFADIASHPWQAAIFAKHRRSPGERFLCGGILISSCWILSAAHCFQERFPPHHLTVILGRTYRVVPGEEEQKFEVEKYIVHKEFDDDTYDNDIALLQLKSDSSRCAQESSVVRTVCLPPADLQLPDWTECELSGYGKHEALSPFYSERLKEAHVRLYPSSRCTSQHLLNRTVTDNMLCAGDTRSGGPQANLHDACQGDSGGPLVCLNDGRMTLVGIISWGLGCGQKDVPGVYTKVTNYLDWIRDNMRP

`Clc1ccccc1C(c1ccccc1)(c1ccccc1)n1cccn1` [TRAM-34]: on human tPA (0.5 μM and 5 μM, PBS with 10% human serum), the “effect on tPA activity (absorbance at 405 nm)” value is on record as “do not interfere with tPA activity”. Also, in data set [1], the metabolic stability result is recorded as “metabolic instability” and the oral availability result was “not orally available”. For the same compound, the half-life in data set [1] (rats and primates) is ~ 2 h. The “reduction in infarct area” value with rats or mice, tMCAO (MCAO, 11 animals per group) is reported as ~ 50%. Moreover, the infarct area entry in the data set on rats or mice, tMCAO (rats or mice, 8 days after tMCAO with reperfusion) is on record as “significantly smaller infarct areas”.

For the compound “plasminogen activator inhibitor-1 [PAI-1]”, the “effect on tPA activity (absorbance at 405 nm)” value on human tPA (positive control) was “strongly inhibited”.
